Structures are written as SMILES.

As usually defined, the Ki is a dissociation constant, usually derived from enzyme kinetics or from competition with a known ligand.

T1 sequence (P78536 215-477 S266A/N452Q limits assumed): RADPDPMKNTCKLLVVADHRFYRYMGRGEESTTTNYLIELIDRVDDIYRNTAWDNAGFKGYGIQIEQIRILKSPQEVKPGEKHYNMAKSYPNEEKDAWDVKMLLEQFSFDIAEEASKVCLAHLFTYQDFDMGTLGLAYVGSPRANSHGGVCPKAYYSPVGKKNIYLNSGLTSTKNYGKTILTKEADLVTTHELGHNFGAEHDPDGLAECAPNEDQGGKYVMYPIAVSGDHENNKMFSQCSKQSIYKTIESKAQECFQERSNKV

One experiment has as its target T1, purified catalytic domain of recombinant human TACE (rhTACEc) (Homo sapiens, UniProt P78536, N452Q/S266A).
T1 construct: rhTACEc, Residue 215 to 477 with two mutation (S266A and N4520) and a 6×His tail; 6xHis (C); made in house; host or cells: baculovirus/Hi5 insect cells
The experiment in a line: TACE kinetic assay, cleavage of internally quenched fluorescent peptide substrate SPDL-3. The format is biochemical. The note with it: TACE; class letters A-D; read-out: Ki Rating.
For `COc1ccc2c(c1)C(=O)N(C[C@@]1(C#Cc3ccc4occc4c3)NC(=O)NC1=O)C2` [Compound 1203], the inhibition constant Ki was under 5 nM. On the same count and under the same terms, with `COc1ccc2c(c1)C(=O)N(C[C@@]1(C#Cc3cn(C)c(=O)n(C)c3=O)NC(=O)NC1=O)C2` [Compound 1204] the figure was under 5 nM; with `COc1ccc2c(c1)C(=O)N(C[C@@]1(C#Cc3c[nH]c(=O)[nH]c3=O)NC(=O)NC1=O)C2` [Compound 1205], under 5 nM.

Consider `COc1ccc2c(c1)C(=O)N(C[C@@]1(C#Cc3nc4ncnc(N)c4n3C)NC(=O)NC1=O)C2` [Compound 1208], for which the inhibition constant Ki is under 5 nM. For `O=C1NC(=O)[C@@](C#Cc2ccc3cnoc3c2)(CN2Cc3ccc(F)cc3C2=O)N1` [Compound 1211], the Ki is under 5 nM.

As for `COc1ccc2c(c1)C(=O)N(C[C@@]1(C#Cc3ccc4nn(C(C)C)cc4c3)NC(=O)NC1=O)C2` [Compound 1212], the inhibition constant Ki was under 5 nM. As to `COc1ccc2c(c1)C(=O)N(C[C@@]1(C#Cc3ccc4c(cnn4C(C)C)c3)NC(=O)NC1=O)C2` [Compound 1213], the inhibition constant (Ki) was under 5 nM. As to `COc1ccc2c(c1)C(=O)N(C[C@@]1(C#Cc3ccc4cnoc4c3)NC(=O)NC1=O)C2` [Compound 1214], the Ki was under 5 nM. For the compound `COc1ccc2c(c1)C(=O)N(C[C@@]1(C#Cc3cncc(-c4nnn(C)n4)c3)NC(=O)NC1=O)C2` [Compound 1215], the Ki was under 5 nM. Turning to `COc1ccc2c(c1)C(=O)N(C[C@@]1(C#Cc3ccc(N)c(OC(F)(F)F)c3)NC(=O)NC1=O)C2` [Compound 1216], the Ki is under 5 nM. `COc1ccc2c(c1)C(=O)N(C[C@@]1(C#Cc3cc(F)c(F)cc3OC)NC(=O)NC1=O)C2` [Compound 1217]: the Ki is under 5 nM. Consider `COc1ccc2c(c1)C(=O)N(C[C@@]1(C#Cc3ccc(F)cc3C#N)NC(=O)NC1=O)C2` [Compound 1218], for which the Ki was under 5 nM. As to `COc1ccc2c(c1)C(=O)N(C[C@@]1(C#Cc3cc(C)ccc3C#N)NC(=O)NC1=O)C2` [Compound 1219], the Ki was under 5 nM.

In the case of `COc1ccc2c(c1)C(=O)N(C[C@@]1(C#Cc3ccc(-c4nnn(C)n4)s3)NC(=O)NC1=O)C2` [Compound 1220A], the Ki is under 5 nM.

Consider `COc1ccc2c(c1)C(=O)N(C[C@@]1(C#Cc3ccc(C(C)=O)cc3)NC(=O)NC1=O)C2` [Compound 1220B], for which the Ki was under 5 nM. The same measure, in the same setting: with `COc1ccc2c(c1)C(=O)N(C[C@@]1(C#Cc3ccc(S(C)(=O)=O)cc3)NC(=O)NC1=O)C2` [Compound 1220C] the figure was over 100 nM; with `COc1ccc2c(c1)C(=O)N(C[C@@]1(C#Cc3ccc4c(c3)NC(=O)C4=O)NC(=O)NC1=O)C2` [Compound 1220D], under 5 nM; with `COc1ccc2c(c1)C(=O)N(C[C@@]1(C#Cc3ncnc4[nH]ccc34)NC(=O)NC1=O)C2` [Compound 1220E], under 5 nM. On to `COc1ccc2c(c1)C(=O)N(C[C@@]1(C#Cc3cncc(-c4nnn(C(C)C)n4)c3)NC(=O)NC1=O)C2` [Compound 1220], for which the Ki was under 5 nM.

For the compound `COc1ccc2c(c1)C(=O)N(C[C@@]1(C#Cc3cccnc3C3CC3)NC(=O)NC1=O)C2` [Compound 1221], the Ki is under 5 nM. On to `COc1ccc2c(c1)C(=O)N(C[C@@]1(C#Cc3cnccc3C3CC3)NC(=O)NC1=O)C2` [Compound 1222], for which the inhibition constant Ki is under 5 nM. Regarding `COc1ccc2c(c1)C(=O)N(C[C@@]1(C#Cc3ccc(C(N)=O)c([N+](=O)[O-])c3)NC(=O)NC1=O)C2` [Compound 1250], the inhibition constant Ki was under 5 nM. Regarding `COc1ccc2c(c1)C(=O)N(C[C@@]1(C#Cc3ccc4c(c3)C(=O)NC4)NC(=O)NC1=O)C2` [Compound 1251], the Ki was under 5 nM.

As for `COc1ccc2c(c1)C(=O)N(C[C@@]1(C#Cc3cccc4c3CNC4=O)NC(=O)NC1=O)C2` [Compound 1252], the Ki is under 5 nM. With `COc1ccc2c(c1)C(=O)N(C[C@@]1(C#Cc3ccc4c(c3)CNC4=O)NC(=O)NC1=O)C2` [Compound 1253], the Ki was under 5 nM. For `COc1ccc2c(c1)C(=O)N(C[C@@]1(C#Cc3ccc(-c4cncnc4)nc3)NC(=O)NC1=O)C2` [Compound 1254], the Ki is under 5 nM. As for `COc1ccc2c(c1)C(=O)N(C[C@@]1(C#Cc3cnc(-c4cccnc4)nc3)NC(=O)NC1=O)C2` [Compound 1256C], the inhibition constant (Ki) was under 5 nM. On to `COc1ccc2c(c1)C(=O)N(C[C@@]1(C#Cc3ccc(-c4nnc(C)o4)nc3)NC(=O)NC1=O)C2` [Compound 1500], for which the Ki was under 5 nM. The same measure, in the same setting: then `COc1ccc2c(c1)C(=O)N(C[C@@]1(C#Cc3ccc(-c4nnc(N)o4)nc3)NC(=O)NC1=O)C2` [Compound 1501], with under 5 nM; and `CCNc1nnc(-c2ccc(C#C[C@]3(CN4Cc5ccc(OC)cc5C4=O)NC(=O)NC3=O)cn2)o1` [Compound 1502], with under 5 nM; and `COc1ccc2c(c1)C(=O)N(C[C@@]1(C#Cc3cnc4ccccn34)NC(=O)NC1=O)C2` [Compound 1503], with under 5 nM.

With `COc1ccc2c(c1)C(=O)N(C[C@@]1(C#Cc3cnc4ccc(Br)cn34)NC(=O)NC1=O)C2` [Compound 1504], the inhibition constant Ki is under 5 nM. Take `COc1ccc2c(c1)C(=O)N(C[C@@]1(C#Cc3ccc4nc(C)cn4c3)NC(=O)NC1=O)C2` [Compound 1505]: the Ki was under 5 nM. On to `COc1ccc2c(c1)C(=O)N(C[C@@]1(C#Cc3n[nH]c4ccccc34)NC(=O)NC1=O)C2` [Compound 1506], for which the Ki was under 5 nM.

`COc1ccc2c(c1)C(=O)N(C[C@@]1(C#Cc3cc(F)ccn3)NC(=O)NC1=O)C2` [Compound 1507]: the inhibitory constant (Ki) was under 5 nM. As to `COc1ccc2c(c1)C(=O)N(C[C@@]1(C#Cc3c4ccccc4nn3C)NC(=O)NC1=O)C2` [Compound 1508], the Ki is under 5 nM.

As for `COc1ccc2c(c1)C(=O)N(C[C@@]1(C#Cc3cc(C)ccc3O)NC(=O)NC1=O)C2` [Compound 1509], the inhibitory constant (Ki) is under 5 nM.

On to `COc1ccc2c(c1)C(=O)N(C[C@@]1(C#Cc3cnn4ccccc34)NC(=O)NC1=O)C2` [Compound 1510], for which the Ki was under 5 nM. Regarding `COC(=O)c1cc(C#C[C@]2(CN3Cc4ccc(OC)cc4C3=O)NC(=O)NC2=O)ccn1` [Compound 1511], the inhibitory constant (Ki) is under 5 nM. For `COc1ccc2c(c1)C(=O)N(C[C@@]1(C#Cc3ccnc(C(N)=O)c3)NC(=O)NC1=O)C2` [Compound 1512], the inhibition constant (Ki) was under 5 nM. Turning to `COc1ccc2c(c1)C(=O)N(C[C@@]1(C#Cc3ccc(C(N)=O)nc3)NC(=O)NC1=O)C2` [Compound 1513], the inhibitory constant (Ki) is under 5 nM. Still for that read-out and setting: with `COC(=O)c1ccc(C#C[C@]2(CN3Cc4ccc(OC)cc4C3=O)NC(=O)NC2=O)cn1` [Compound 1514] the figure was under 5 nM. The same measure, in the same setting: then `COc1ccc2c(c1)C(=O)N(C[C@@]1(C#Cc3cnccc3C(N)=O)NC(=O)NC1=O)C2` [Compound 1515], with under 5 nM. Regarding `COC(=O)c1ccncc1C#C[C@]1(CN2Cc3ccc(OC)cc3C2=O)NC(=O)NC1=O` [Compound 1516], the Ki is under 5 nM. As to `CNC(=O)c1ccc(C#C[C@]2(CN3Cc4ccc(OC)cc4C3=O)NC(=O)NC2=O)cn1` [Compound 1517], the Ki is under 5 nM.

For `COc1ccc2c(c1)C(=O)N(C[C@@]1(C#Cc3ccc(C(=O)NC4CC4)nc3)NC(=O)NC1=O)C2` [Compound 1518], the Ki was under 5 nM. `COc1ccc2c(c1)C(=O)N(C[C@@]1(C#Cc3cc(C)c(=O)n(C)c3)NC(=O)NC1=O)C2` [Compound 1519]: the inhibition constant Ki was under 5 nM. On to `COc1ccc2c(c1)C(=O)N(C[C@@]1(C#Cc3ccc4nnn(C)c4c3)NC(=O)NC1=O)C2` [Compound 1520], for which the Ki is under 5 nM. Consider `COc1ccc2c(c1)C(=O)N(C[C@@]1(C#Cc3ccc4nc(C(F)(F)F)cn4c3)NC(=O)NC1=O)C2` [Compound 1521], for which the Ki was under 5 nM. As for `COc1ccc2c(c1)C(=O)N(C[C@@]1(C#Cc3ccc4[nH]nnc4c3)NC(=O)NC1=O)C2` [Compound 1522], the Ki is under 5 nM.

Take `COc1ccc2c(c1)C(=O)N(C[C@@]1(C#Cc3ccc4[nH]ncc4c3)NC(=O)NC1=O)C2` [Compound 1523]: the Ki was under 5 nM. In the case of `COc1ccc2c(c1)C(=O)N(C[C@@]1(C#Cc3c[nH]c(=O)c(C)c3)NC(=O)NC1=O)C2` [Compound 1524], the inhibition constant (Ki) was under 5 nM. The same measure, in the same setting: with `CC#CCOc1ccc2c(c1)C(=O)N(C[C@@]1(C#Cc3ccc4cn(C)nc4c3)NC(=O)NC1=O)C2` [Compound 1533] the figure was under 5 nM; with `Cc1cc(COc2ccc3c(c2)C(=O)N(C[C@@]2(C#Cc4cccnc4)NC(=O)NC2=O)C3)c2ccccc2n1` [Compound 1534], under 5 nM. Regarding `O=C1NC(=O)C(C#Cc2cnc3ccc(Br)cn23)(CN2Cc3ccc(OC(F)F)cc3C2=O)N1` (stereo not shown) [Compound 1535], the Ki fell in the range of 5 to 25 nM. Take `COc1ccc2c(c1)C(=O)N(C[C@@]1(C#Cc3ccc(C(=O)NS(C)(=O)=O)cc3)NC(=O)NC1=O)C2` [Compound 1550]: the Ki fell in the range of 5 to 25 nM. With `CCS(=O)(=O)NC(=O)c1ccc(C#C[C@]2(CN3Cc4ccc(OC)cc4C3=O)NC(=O)NC2=O)cc1` [Compound 1551], the Ki is under 5 nM. As for `COc1ccc2c(c1)C(=O)N(C[C@@]1(C#Cc3cncc(C(C)=NO)c3)NC(=O)NC1=O)C2` [Compound 1552], the Ki was under 5 nM.

Regarding `COc1ccc2c(c1)C(=O)N(C[C@@]1(C#Cc3ccc(CC(C)=NO)cc3)NC(=O)NC1=O)C2` [Compound 1553], the inhibition constant (Ki) is under 5 nM.

As for `COc1ccc2c(c1)C(=O)N(C[C@@]1(C#Cc3ccc4c(C=NO)c[nH]c4c3)NC(=O)NC1=O)C2` [Compound 1554], the inhibition constant (Ki) was under 5 nM. Regarding `COc1ccc2c(c1)C(=O)N(C[C@@]1(C#Cc3ccc(C4(C)NC(=O)N(C)C4=O)cc3)NC(=O)NC1=O)C2` (stereo partly shown) [Compound 1555], the Ki was under 5 nM. Regarding `COc1ccc2c(c1)C(=O)N(C[C@@]1(C#Cc3cccc(C4(C)NC(=O)NC4=O)c3)NC(=O)NC1=O)C2` (stereo partly shown) [Compound 1556], the Ki is under 5 nM.

Still in this experiment, the particulars now being: rhTACEc 70 pM, 30 μM SPDL-3, 90 min pre-incubation at 25° C.; read-out: Ki (nM), TACE inhibitory activity.
As to `COc1ccc2c(c1)C(=O)N(C[C@@]1(C#Cc3ccc(C4(C)NC(=O)NC4=O)cc3)NC(=O)NC1=O)C2` (stereo partly shown) [Compound 1256], the inhibition constant Ki turned out to be 0.03 nM.

Turning to `CCNc1nnc(-c2ccc(C#C[C@]3(CN4Cc5ccc(OC)cc5C4=O)NC(=O)NC3=O)cn2)o1` [Compound 1502], the inhibitory constant (Ki) came out at 0.094 nM.

(Values after patent US7772263B2, “Compounds for the treatment of inflammatory disorders” (Schering Corporation, priority 2006, dated 2010).)
